Reference: patent US20230365590A1, “BIPHENYL COMPOUND AS IMMUNOMODULATOR, PREPARATION METHOD THEREFOR AND APPLICATION THEREOF” (SHENZHEN CHIPSCREEN BIOSCIENCES CO., LTD., priority 2020, published 2023)

Columns and labels:
[1] = Single-dosing pharmacokinetics test; assay type: in vivo, B-hPD-1/hPD-L1 female mice; settings: female, B-hPD-1/hPD-L1 (humanized), mouse, po; humanized mice, single dose of 100 mg/kg by gavage, plasma
Procedure: 24 6-week old B-hPD-1/hPD-L1 female mice (purchased from Biocytogen (Jiangsu) Gene Biotechnology Co., Ltd.) were taken and the test compound was dissolved in a solvent containing 5% DMSO, 60% PEG400 and 35% purified water. The compound I-6 and three control molecules, Example 17, Compound 14 (INCB086550) and Example 180 were dosed. The compound was administered by gavage in a single dose of 100 mg/kg and blood was collected through fundus vein plexus after administration. The time points for blood collection were 15 min, 30 min, 1 h, 2 h, 4 h, 8 h, 24 h, 32 h and 48 h. About 0.1 mL of blood was collected and centrifuged in a centrifuge tube (heparin sodium anticoagulation) at 5000 rpm for 5 min to separate plasma, and then frozen at −20° C. for testing. After the plasma sample was treated, the concentration of the compound in the plasma was determined by liquid chromatography-mass spectrometry (LC-MS/MS). The pharmacokinetic parameters were calculated using Phoenix WinNonlin 7.0 based on the average blood concentration data at different time points.

[2] = Repeated-dosing pharmacokinetics test; assay type: in vivo, B-hPD-1/hPD-L1 humanized female mice; settings: female, B-hPD-1/hPD-L1 (humanized), mouse, po; humanized mice, 50 mg/kg by gavage once a day for 12 days, plasma on day 12
Procedure: 24 6-week old B-hPD-1/hPD-L1 humanized female mice (purchased from Biocytogen (Jiangsu) Gene Biotechnology Co., Ltd.) were taken and the test compound was dissolved in a solvent containing 5% DMSO, 60% PEG400 and 35% purified water. The compound I-6 and three control molecules, Example 17, Compound 14 (INCB086550) and the aforementioned Example 180 were dosed. The compound was administered by gavage once a day in a dose of 50 mg/kg for 12 consecutive days, and blood was alternately collected through fundus vein plexus on day 12 of administration. The time points for blood collection were 15 min, 30 min, 1 h, 2 h, 4 h, 8 h, 24 h, 32 h and 48 h. About 0.1 mL of blood was collected and centrifuged in a centrifuge tube (heparin sodium for anticoagulation) at 5000 rpm for 5 min to separate plasma, and then frozen at −20° C. for testing. The concentration of the compound in the plasma was determined by liquid chromatography-mass spectrometry (LC-MS/MS). The pharmacokinetic parameters were calculated using Phoenix WinNonlin 7.0 based on the average blood concentration data at different time points.

SMILES	AUC(0-t) [1]	MRT [1]	half-life [1]	AUC(0-t) [2]	MRT [2]	half-life [2]
COCC12CCC(CCN3CCc4c(nc(C(=O)Nc5cccc(-c6cccc(NC(=O)c7nc8c(n7C)CCN(CCC79CCC(C(=O)O)(CC7)C9)C8)c6Cl)c5Cl)n4C)C3)(CC1)C2 [Compound I-6, 4-(2-(2-((2,2′-dichloro-3′-(5-(2-(4-(methoxymethyl)bicyclo[2.2.1]heptan-1-yl)ethyl)-1-methyl-4,5,6,7-tetrahydro-1H-imidazo[4,5-c]pyridine-2-carboxamido)-[1, 1′-biphenyl]-3-yl)carbamoyl)-1-methyl-1,4,6,7-tetrahydro-5H-imidazo[4,5-c]pyridin-5-yl)ethyl)bicyclo[2.2.1]heptane-1-carboxylic acid]	207000 ng·h/mL	10.9 h	9.3 h	151000 ng·h/mL	12 h	9.4 h
Cn1c(C(=O)Nc2cccc(-c3cccc(NC(=O)c4nc5c(n4C)CCN(CC46CCC(C(=O)O)(CC4)C6)C5)c3Cl)c2Cl)nc2c1CCN(CCO)C2 [Example 180]	45400 ng·h/mL	4.7 h	3.5 h	27800 ng·h/mL	4.2 h	3.3 h
